The molecules below were run against Human TASK-1 channels (Homo sapiens (Human), UniProt O14649) (assay: Determination of the activity on the TASK-1 channel in Xenopus oocytes (two-microelectrode voltage clamp)). Details: human TASK-1 expressed in Xenopus oocytes, room temperature; read-out: IC50 value for TASK-1 inhibition.
Chain of Human TASK-1 channels (O14649 whole entry): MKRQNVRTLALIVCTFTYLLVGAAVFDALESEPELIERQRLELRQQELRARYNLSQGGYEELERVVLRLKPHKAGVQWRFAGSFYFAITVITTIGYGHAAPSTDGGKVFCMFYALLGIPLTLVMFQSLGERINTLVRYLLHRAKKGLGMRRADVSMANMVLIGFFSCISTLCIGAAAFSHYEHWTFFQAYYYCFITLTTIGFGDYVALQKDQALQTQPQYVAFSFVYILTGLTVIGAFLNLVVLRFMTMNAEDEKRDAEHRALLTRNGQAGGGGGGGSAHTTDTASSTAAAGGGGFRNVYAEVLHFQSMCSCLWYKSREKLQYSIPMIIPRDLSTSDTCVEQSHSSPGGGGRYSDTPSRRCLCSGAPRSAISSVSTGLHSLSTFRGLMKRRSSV
Format: cell-based
How it was run: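 Xenopus oocytes were injected with human TASK-1 cRNA and recorded two days later by two-microelectrode voltage clamp, holding at −90 mV with 500 ms steps to 40 mV. Superfusion used ND96, pH 7.4, at room temperature, with rising compound concentrations; percentage inhibition of control current was fitted to a dose-response curve for IC50.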
With CC[C@@H](NC(=O)c1cc(C(=O)N2CC[C@H](OCC(C)C)C2)n2c1COCC2)c1ccccc1 [16fg, 6-((S)-3-Isobutoxy-pyrrolidine-1-carbonyl)-3,4-dihydro-1H-pyrrolo[2,1-c][1,4]oxazine-8-carboxylic acid ((R)-1-phenyl-propyl)-amide] the IC50 was 1300 nM. CC[C@@H](NC(=O)c1cc(C(=O)N2CCC[C@@H]2c2ccc(OC)nc2)n2c1COCC2)c1ccccc1 [16fl, 6-[(R)-2-(6-Methoxy-pyridin-3-yl)-pyrrolidine-1-carbonyl]-3,4-dihydro-1H-pyrrolo[2,1-c][1,4]oxazine-8-carboxylic acid ((R)-1-phenyl-propyl)-amide] was tested, and the IC50 was 240 nM. CC[C@@H](NC(=O)c1cc(C(=O)N[C@H](CC)c2ncccn2)c2n1CCOC2)c1ccccc1 [16kd, 3,4-Dihydro-1H-pyrrolo[2,1-c][1,4]oxazine-6,8-dicarboxylic acid 6-[((R)-1-phenyl-propyl)-amide] 8-[((R)-1-pyrimidin-2-yl-propyl)-amide]] gave an IC50 of 140 nM. For CC[C@@H](NC(=O)c1cc(C(=O)NC(C)c2nnn(C)n2)n2c1COCC2)c1ccccc1 (stereo partly drawn) [16rn, 3,4-Dihydro-1H-pyrrolo[2,1-c][1,4]oxazine-6,8-dicarboxylic acid 6-{[1-(2-methyl-2H-tetrazol-5-yl)-ethyl]-amide} 8-[((R)-1-phenyl-propyl)-amide]], the IC50 was 180 nM. In the case of CC[C@@H](NC(=O)c1cc(C(=O)N2CCC[C@@H]2C)c2n1CCOC2)c1ccc(C#N)nc1 [16nj, 8-((S)-2-Methyl-pyrrolidine-1-carbonyl)-3,4-dihydro-1H-pyrrolo[2,1-c][1,4]oxazine-6-carboxylic acid [(R)-1-(6-cyano-pyridin-3-yl)-propyl]-amide], the IC50 is reported as 2000 nM. Molecule CC[C@@H](NC(=O)c1cc(C(=O)N[C@H](CC)c2cnccn2)n2c1COCC2)c1ccccc1 [16hw, 3,4-Dihydro-1H-pyrrolo[2,1-c][1,4]oxazine-6,8-dicarboxylic acid 8-[((R)-1-phenyl-propyl)-amide] 6-[((R)-1-pyrazin-2-yl-propyl)-amide]] has an IC50 of 360 nM. CC(C)[C@@H](NC(=O)c1cc(C(=O)NCc2cnccn2)c2n1CCOC2)c1ccc(F)cc1 [16lo, 3,4-Dihydro-1H-pyrrolo[2,1-c][1,4]oxazine-6,8-dicarboxylic acid 6-{[(R)-1-(4-fluoro-phenyl)-2-methyl-propyl]-amide} 8-[(pyrazin-2-ylmethyl)-amide]] was tested, and the IC50 was 420 nM. With CC[C@H]1CCCN1C(=O)c1cc(C(=O)N[C@H](CC)c2ccccc2)c2n1CCOC2 (racemic) [16fc, 6-((S)-2-Ethyl-pyrrolidine-1-carbonyl)-3,4-dihydro-1H-pyrrolo[2,1-c][1,4]oxazine-8-carboxylic acid ((R)-1-phenyl-propyl)-amide] the IC50 was 25 nM. CC[C@@H](NC(=O)c1cc(C(=O)NCc2ccno2)n2c1COCC2)c1ccccc1 [16hf, 3,4-Dihydro-1H-pyrrolo[2,1-c][1,4]oxazine-6,8-dicarboxylic acid 6-[(isoxazol-5-ylmethyl)-amide] 8-[((R)-1-phenyl-propyl)-amide]] gave an IC50 of 380 nM. For CC[C@@H](NC(=O)c1cc(C(=O)NCc2nccs2)n2c1COCC2)c1ccccc1 [16il, 3,4-Dihydro-1H-pyrrolo[2,1-c][1,4]oxazine-6,8-dicarboxylic acid 8-[((R)-1-phenyl-propyl)-amide] 6-[(thiazol-2-ylmethyl)-amide]], the IC50 was 170 nM. For CC[C@@H](NC(=O)c1cc(C(=O)NCc2nccs2)c2n1CCOC2)c1ccccc1 [16jt, 3,4-Dihydro-1H-pyrrolo[2,1-c][1,4]oxazine-6,8-dicarboxylic acid 6-[((R)-1-phenyl-propyl)-amide] 8-[(thiazol-2-ylmethyl)-amide]], the IC50 was 150 nM. Molecule CC[C@@H](NC(=O)c1cc(C(=O)NCCc2ccccn2)n2c1COCC2)c1ccccc1 [16gm, 3,4-Dihydro-1H-pyrrolo[2,1-c][1,4]oxazine-6,8-dicarboxylic acid 8-[((R)-1-phenyl-propyl)-amide] 6-[(2-pyridin-2-yl-ethyl)-amide]] has an IC50 of 490 nM. CCC(NC(=O)c1cc(C(=O)N[C@H](CC)c2ccccc2)c2n1CCOC2)c1cnc(OC)nc1 (single isomer, unassigned) [16hu] was tested, and the IC50 was 620 nM. With CCO[C@H]1CCN(C(=O)c2cc(C(=O)N[C@H](CC)c3ccccc3)c3n2CCOC3)C1 [16es, 6-((S)-3-Ethoxy-pyrrolidine-1-carbonyl)-3,4-dihydro-1H-pyrrolo[2,1-c][1,4]oxazine-8-carboxylic acid ((R)-1-phenyl-propyl)-amide] the IC50 was 1800 nM. In the case of CC[C@@H](NC(=O)c1cc(C(=O)N2CCCC2COC(F)(F)F)n2c1COCC2)c1ccccc1 (stereo partly drawn) [16en, 6-(2-Trifluoromethoxymethyl-pyrrolidine-1-carbonyl)-3,4-dihydro-1H-pyrrolo[2,1-c][1,4]oxazine-8-carboxylic acid ((R)-1-phenyl-propyl)-amide], the IC50 is reported as 180 nM. CC[C@@H](NC(=O)c1cc(C(=O)N[C@H](CC)c2cnc(OC)cn2)n2c1COCC2)c1ccccc1 [16hy, 3,4-Dihydro-1H-pyrrolo[2,1-c][1,4]oxazine-6,8-dicarboxylic acid 6-{[(R)-1-(5-methoxy-pyrazin-2-yl)-propyl]-amide} 8-[((R)-1-phenyl-propyl)-amide]] showed an IC50 of 41 nM. With CC[C@@H](NC(=O)c1cc(C(=O)NCCc2ccc(F)cc2)n2c1CCCC2)c1ccccc1 [16mx, 5,6,7,8-Tetrahydro-indolizine-1,3-dicarboxylic acid 3-{[2-(4-fluoro-phenyl)-ethyl]-amide} 1-[((R)-1-phenyl-propyl)-amide]] the IC50 was 97 nM. In the case of CC[C@@H](NC(=O)c1cc(C(=O)N2CCC[C@@H]2C)n2c1CCCC2)c1ccc(C(F)(F)F)nc1 [16lw, 3-((S)-2-Methyl-pyrrolidine-1-carbonyl)-5,6,7,8-tetrahydro-indolizine-1-carboxylic acid [(R)-1-(6-trifluoromethyl-pyridin-3-yl)-propyl]-amide], the IC50 is reported as 600 nM. For CC[C@@H](NC(=O)c1cc(C(=O)N2CCC[C@@H]2C)n2c1COCC2)c1ccc(C(F)F)cc1 [16au, 6-((S)-2-Methyl-pyrrolidine-1-carbonyl)-3,4-dihydro-1H-pyrrolo[2,1-c][1,4]oxazine-8-carboxylic acid [(R)-1-(4-difluoromethyl-phenyl)-propyl]-amide], the IC50 was 340 nM. Molecule CC[C@@H](NC(=O)c1cc(C(=O)NCC2CCCC2)n2c1CCCC2)c1ccccc1 [16my, 5,6,7,8-Tetrahydro-indolizine-1,3-dicarboxylic acid 3-cyclopentylmethyl-amide 1-[((R)-1-phenyl-propyl)-amide]] has an IC50 of 120 nM. CC[C@@H](NC(=O)c1cc(C(=O)N2CCC[C@@H]2C)n2c1COCC2)c1ncc(C(F)(F)F)cn1 [16bh, 6-((S)-2-Methyl-pyrrolidine-1-carbonyl)-3,4-dihydro-1H-pyrrolo[2,1-c][1,4]oxazine-8-carboxylic acid [(R)-1-(5-trifluoromethyl-pyrimidin-2-yl)-propyl]-amide] showed an IC50 of 920 nM. With CC[C@@H](NC(=O)c1cc(C(=O)NC(C)c2ncccn2)n2c1COCC2)c1ccccc1 (stereo partly drawn) [16hd, 3,4-Dihydro-1H-pyrrolo[2,1-c][1,4]oxazine-6,8-dicarboxyli cacid 8-[((R)-1-phenyl-propyl)-amide] 6-[(1-pyrimidin-2-yl-ethyl)-amide]] the IC50 was 560 nM. With CC[C@@H](NC(=O)c1cc(C(=O)N[C@H](CC)c2ncccc2OC)n2c1COCC2)c1ccccc1 [16ia, 3,4-Dihydro-1H-pyrrolo[2,1-c][1,4]oxazine-6,8-dicarboxylic acid 6-{[(R)-1-(3-methoxy-pyridin-2-yl)-propyl]-amide} 8-[((R)-1-phenyl-propyl)-amide]] the IC50 was 120 nM. In the case of CCOC(=O)C[C@H]1CCCN1C(=O)c1cc(C(=O)N[C@H](C)c2ccc(F)cc2)n2c1COCC2 [16dl, ((R)-1-{6-[(R)-1-(4-Fluoro-phenyl)-ethylcarbamoyl]-3,4-dihydro-1H-pyrrolo[2,1-c][1,4]oxazine-8-carbonyl}-pyrrolidin-2-yl)-acetic acid ethyl ester], the IC50 is reported as 62 nM. With CC[C@@H](NC(=O)c1cc(C(=O)N2CCC[C@@H]2C)n2c1COCC2)c1c(F)cc(C(F)(F)F)cc1F [16cl, 6-((S)-2-Methyl-pyrrolidine-1-carbonyl)-3,4-dihydro-1H-pyrrolo[2,1-c][1,4]oxazine-8-carboxylic acid [(R)-1-(2,6-difluoro-4-trifluoromethyl-phenyl)-propyl]-amide] the IC50 was 50 nM. In the case of CC[C@@H](NC(=O)c1cc(C(=O)N2CCC[C@@H]2C)c2n1CCOC2)c1ccccc1Cl [16nh, 8-((S)-2-Methyl-pyrrolidine-1-carbonyl)-3,4-dihydro-1H-pyrrolo[2,1-c][1,4]oxazine-6-carboxylic acid [(R)-1-(2-chloro-phenyl)-propyl]-amide], the IC50 is reported as 90 nM. With “5,6,7,8-Tetrahydro-indolizine-1,3-dicarboxylic acid 3-[(5-fluoro-pyridin-3-ylmethyl)-amide] 1-[((R)-1-phenyl-propyl)-amide] [16nb]” the IC50 was 460 nM. CC[C@@H](NC(=O)c1cc(C(=O)N2CCC[C@@H]2C)n2c1COCC2)c1ccc(C(F)(F)F)cc1Cl [16cq, 6-((S)-2-Methyl-pyrrolidine-1-carbonyl)-3,4-dihydro-1H-pyrrolo[2,1-c][1,4]oxazine-8-carboxylic acid [(R)-1-(2-chloro-4-trifluoromethyl-phenyl)-propyl]-amide] showed an IC50 of 300 nM. For CC[C@@H](NC(=O)c1cc(C(=O)N[C@H](CC)c2cccc(O)n2)n2c1COCC2)c1ccccc1 [16rh, 3,4-Dihydro-1H-pyrrolo[2,1-c][1,4]oxazine-6,8-dicarboxylic acid 6-{[(R)-1-(6-hydroxy-pyridin-2-yl)-propyl]-amide} 8-[((R)-1-phenyl-propyl)-amide]], the IC50 was 240 nM. C[C@@H](NC(=O)c1cc(C(=O)N2CCC[C@@H]2C)n2c1CCCC2)c1ccc(Cl)cc1 [16ly, 3-((S)-2-Methyl-pyrrolidine-1-carbonyl)-5,6,7,8-tetrahydro-indolizine-1-carboxylic acid [(R)-1-(4-chloro-phenyl)-ethyl]-amide] showed an IC50 of 92 nM. For CC(NC(=O)c1cc(C(=O)N[C@@H](c2ccc(F)cc2)C(C)C)n2c1COCC2)c1cnccn1 (single isomer, unassigned) [16lp], the IC50 was 550 nM.

Reference: patent US9284333B2, “Fused pyrroledicarboxamides and their use as pharmaceuticals” (SANOFI, priority 2012, dated 2016)
